Measured values from patent US9315522B2, “Antibacterial compounds” (JANSSEN SCIENCES IRELAND UC, priority 2012, dated 2016).
≈ marks a conversion by molar mass, not a printed value. Where “and” joins values, the source holds several entries; their conditions need not be identical. Equal values may be shown once.

Target: T1, S. aureus ATCC 29213 FabI (Staphylococcus aureus, UniProt Q6GI75)
T1 sequence (Q6GI75 1-256): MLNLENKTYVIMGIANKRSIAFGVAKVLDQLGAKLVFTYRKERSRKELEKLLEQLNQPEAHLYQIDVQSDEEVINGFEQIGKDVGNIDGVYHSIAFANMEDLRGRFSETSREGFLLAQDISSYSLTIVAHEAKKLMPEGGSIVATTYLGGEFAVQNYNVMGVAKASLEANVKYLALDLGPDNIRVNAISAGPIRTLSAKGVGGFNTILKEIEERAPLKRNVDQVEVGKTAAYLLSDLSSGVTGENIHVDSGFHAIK
Experiment: Staphylococcus aureus FabI enzyme inhibition assay
Assay type: biochemical
Settings: read-out: FabI (300.235) IC50 (converted)
Description: Y.1 FabI Enzyme Inhibition: Staphylococcus aureus FabI Enzyme Inhibition Assay
FabI enzyme inhibition assays were carried out in half-area, 384-well microtitre plates. Compounds were evaluated in 40-μl assay mixtures containing 100 mM NaADA, pH 6.5 (ADA=N-[2-acetamido]-2iminodiacetic acid), 250 μM crotonoyl-CoA, 625 μM NADH and 50 μg/ml S. aureus ATCC 29213 FabI. Inhibitors were typically varied over the range of 50 to 0.39 μM. The reaction mixtures were incubated for 30 minutes at room temperature and the reaction was stopped by adding 200 mM Tris buffer (pH 9.0) to create a pH-shift. The consumption of NADH was monitored by measuring the change in absorbance at […]. By comparing sample readings to those of negative (absence of compound) and positive (absence of enzyme) controls, the percent inhibition of enzymatic activity of the compounds was determined A best-fit curve is fitted by a minimum of squares method. From this an IC50-value (expressed in μg/ml), resulting in 50% inhibition of enzymatic activity, was obtained.

SMILES | IC50 [µM]
C=CCN1C[C@@H]2CN(C(=O)/C=C/c3cnc4c(c3)CN(C)CC(=O)N4)C[C@@H]2C1 [compound 61] | > 50.1
CN1CC(=O)Nc2ncc(/C=C/C(=O)N3C[C@@H]4CN(c5cccnc5)C[C@@H]4C3)cc2C1 [compound 62] | 7.41
O=C1Nc2ncc(/C=C/C(=O)N3CC4C=C(c5ccccc5)CC4C3)cc2Cn2cncc21 (stereo not shown) [compound 71] | 1.1
CC(=O)N1CCN2Cc3cc(/C=C/C(=O)N4CC5C=C(c6ccncc6)CC5C4)cnc3NC(=O)C2C1 (stereo not shown) [compound 84] | 1.34
O=C1Nc2ncc(/C=C/C(=O)N3CC4C=C(c5ccccc5)CC4C3)cc2Cn2nccc21 (stereo not shown) [compound 86] | 1.83

Test system: not given
Experiment: not given
Settings: not given

SMILES | melting point
O=C1Nc2ncc(/C=C/C(=O)N3CC4C=C(c5ccccc5)CC4C3)cc2Cn2cncc21 (stereo not shown) [Compound K11] | 220 to 270 °C
O=C(Nc1ccc(/C=C/C(=O)N2CC3C=C(c4ccsc4)CC3C2)cn1)c1cccnc1 (stereo not shown) [compound 4] | 236.37 °C and 236 °C
Cc1cncc(C(=O)Nc2ccc(/C=C/C(=O)N3CC4C=C(c5nccs5)CC4C3)cn2)c1 (stereo not shown) [compound 6] | 230.99 °C and 231 °C
O=C1Nc2ncc(/C=C/C(=O)N3CC4C=C(c5ccccc5)CC4C3)cc2C(=O)N2CCNCC12 (stereo not shown) [compound 81] | 230 to 232 °C
O=C1Nc2ncc(/C=C/C(=O)N3C[C@@H]4CN(c5ccccc5)C[C@@H]4C3)cc2CN2CCOCC12 (stereo partly shown) [compound 87] | > 250 °C
CCOC(=O)N1CCN2Cc3cc(/C=C/C(=O)N4CC5C=C(c6ccccc6)CC5C4)cnc3NC(=O)C2C1 (stereo not shown) [compound 88] | 242 to 267 °C

Test system: Staphylococcus aureus ATCC 29213
Experiment: Antibacterial susceptibility testing, IC90 determination (STA)
Assay type: cell-based
Settings: Staphylococcus aureus ATCC 29213, broth microdilution, resazurin
Description: (§1) The following bacteria were used: Staphylococcus aureus ATCC 29213, methicillin-resistant Staphylococcus aureus (MRSA) ATCC 700788 and Escherichia coli ATCC 35218. The bacteria used in this study were grown overnight in flasks containing 100 ml Mueller-Hinton broth (Difco cat. nr. 0757-17) in sterile de-ionized water, with shaking, at 37° C. Stocks were store at −70° C. until use.
(§2) Bacteria were incubated on a tryptic soy agar plate containing 5% sheep blood (Becton Dickinson cat. nr. 254053) for 18-24 hours at 35° C. in aerobic conditions (first passage). For the second passage, fresh Mueller-Hinton broth is inoculated with 5-10 colonies and grown overnight at 35° C. until turbidity (reaching log-phase) in aerobic conditions is reached. The bacterial suspension is then adjusted to 0.5 McFarland density and further diluted 1:100 in Mueller Hinton broth medium. This is used as inoculum.
The result(s) are depicted the table below (for STA ATCC 29213).
(§3) MIC assays were performed by the broth microdilution method in a 96-well format (flat-bottom microtitre plates) with a final volume of 0.1 ml Mueller Hinton broth containing two-fold serial dilutions of compounds and inoculated with 5×10^5 CFU/ml of bacteria (standard inoculum size according to CLSI guidelines). Inhibitors are typically varied over the range of 63 to 0.49 μM. The final DMSO concentration in the assay was 1.25% (maximum tolerable DMSO concentration=6%). In the assays where the effect of human serum on the activity of the compounds against S. aureus was tested, human serum was added at a final concentration of 10%. The plates were incubated at 35° C. for 16-20 hours. At the end of incubation the bacterial growth was quantified fluorometrically. For this, resazurin was added to all wells and the plates were re-incubated. The incubation time is dependent on the type of bacteria. A change in color from blue to pink indicated the growth of bacteria. The fluorescence was read in computer-controlled fluorometer (Fluoroskan Ascent FL, Labsystems) at an excitation wavelength 540 nm and an emission wavelength of 590 nm. The % growth inhibition achieved by the compounds was calculated according to standard methods. The IC90 (expressed in μg/ml) was defined as the 90% inhibitory concentration for bacterial growth. A panel of reference compounds were simultaneously tested for QC approval.

SMILES | STA (361.159) IC90 [µg/mL]
CC1(C)Oc2cc(/C=C/C(=O)N3CC4C=C(c5ccccc5)CC4C3)cnc2NC1=O (stereo not shown) [compound 43] | <0.20

Same assay, conditions: Staphylococcus aureus, ATCC29213, Staphylococcus aureus ATCC 29213, broth microdilution, resazurin; read-out: STA (361.159) IC90

SMILES | IC90 [µg/mL]
O=C(Nc1ccc(/C=C/C(=O)N2CC3C=C(c4ccsc4)CC3C2)cn1)c1cccnc1 (stereo not shown) [compound 4] | < 0.21
Cc1cncc(C(=O)Nc2ccc(/C=C/C(=O)N3CC4C=C(c5nccs5)CC4C3)cn2)c1 (stereo not shown) [compound 6] | < 0.22
CC1(C)Oc2cc(/C=C/C(=O)N3CC4C=C(c5ccccc5)CC4C3)cnc2NC1=O (stereo not shown) [compound 42] | < 0.2
CC1(C)Oc2cc(/C=C/C(=O)N3CC4C=C(c5nccs5)CC4C3)cnc2NC1=O (stereo not shown) [compound 44] | < 0.2
Cn1nccc1C1=CC2CN(C(=O)/C=C/c3cnc4c(c3)OC(C)(C)C(=O)N4)CC2C1 (stereo not shown) [compound 45] | < 0.2
C=CCN1C[C@@H]2CN(C(=O)/C=C/c3cnc4c(c3)CN(C)CC(=O)N4)C[C@@H]2C1 [compound 61] | > 24.1
CN1CC(=O)Nc2ncc(/C=C/C(=O)N3C[C@@H]4CN(c5cccnc5)C[C@@H]4C3)cc2C1 [compound 62] | > 26.4
O=C1Nc2ncc(/C=C/C(=O)N3CC4C=C(c5ccccc5)CC4C3)cc2Cn2cncc21 (stereo not shown) [compound 71] | < 0.21
O=C1Nc2ncc(/C=C/C(=O)N3CC4C=C(c5ccccc5)CC4C3)cc2C(=O)N2CCNCC12 (stereo not shown) [compound 81] | 0.45 (≈ 0.958 µM)
CC(=O)N1CCN2Cc3cc(/C=C/C(=O)N4CC5C=C(c6ccncc6)CC5C4)cnc3NC(=O)C2C1 (stereo not shown) [compound 84] | 0.92 (≈ 1.85 µM)
O=C1Nc2ncc(/C=C/C(=O)N3CC4C=C(c5ccccc5)CC4C3)cc2Cn2nccc21 (stereo not shown) [compound 86] | 3.47 (≈ 7.93 µM)

Test system: S. aureus
Experiment: Antibacterial susceptibility testing, IC90 determination with 10% human serum (STA + 10% HS)
Assay type: cell-based, Staphylococcus aureus
Settings: Staphylococcus aureus, human serum at final concentration of 10%, read-out: STA + 10% HS (361.169) IC90
Description: as §1, §2, §3
The results are depicted in the table(s) below (STA+10% HS).

SMILES | IC90 [µg/mL]
O=C(Nc1ccc(/C=C/C(=O)N2CC3C=C(c4ccsc4)CC3C2)cn1)c1cccnc1 (stereo not shown) [compound 4] | 0.28
Cc1cncc(C(=O)Nc2ccc(/C=C/C(=O)N3CC4C=C(c5nccs5)CC4C3)cn2)c1 (stereo not shown) [compound 6] | < 0.22
CC1(C)Oc2cc(/C=C/C(=O)N3CC4C=C(c5ccccc5)CC4C3)cnc2NC1=O (stereo not shown) [compound 42] | < 0.2
CC1(C)Oc2cc(/C=C/C(=O)N3CC4C=C(c5nccs5)CC4C3)cnc2NC1=O (stereo not shown) [compound 44] | < 0.2
Cn1nccc1C1=CC2CN(C(=O)/C=C/c3cnc4c(c3)OC(C)(C)C(=O)N4)CC2C1 (stereo not shown) [compound 45] | < 0.2
C=CCN1C[C@@H]2CN(C(=O)/C=C/c3cnc4c(c3)CN(C)CC(=O)N4)C[C@@H]2C1 [compound 61] | > 24.1
CN1CC(=O)Nc2ncc(/C=C/C(=O)N3C[C@@H]4CN(c5cccnc5)C[C@@H]4C3)cc2C1 [compound 62] | > 26.4
O=C1Nc2ncc(/C=C/C(=O)N3CC4C=C(c5ccccc5)CC4C3)cc2Cn2cncc21 (stereo not shown) [compound 71] | < 0.21
O=C1Nc2ncc(/C=C/C(=O)N3CC4C=C(c5ccccc5)CC4C3)cc2C(=O)N2CCNCC12 (stereo not shown) [compound 81] | 0.43
CC(=O)N1CCN2Cc3cc(/C=C/C(=O)N4CC5C=C(c6ccncc6)CC5C4)cnc3NC(=O)C2C1 (stereo not shown) [compound 84] | 0.87
O=C1Nc2ncc(/C=C/C(=O)N3CC4C=C(c5ccccc5)CC4C3)cc2Cn2nccc21 (stereo not shown) [compound 86] | 3.81

Test system: not listed separately
Experiment: Cytotoxicity MTT assay (HELAM)
Assay type: cell-based, Human
Settings: human, HelaM cells, read-out: HELAM (222.125) CC50
Description: Cytotoxicity of the compounds was evaluated using the MTT assay. Human HelaM cells grown in 96-well plates were exposed to serial dilutions of the tested compounds (final volume of 0.2 ml) and incubated for 72 hours at 37° C. and 5% CO2. Inhibitors are typically varied over the range of 25 to 0.8 μM. The final DMSO concentration in the assay is 0.5%. MTT (3-(4,5-Dimethylthiazol-2-yl)-2,5-diphenyltetrazolium bromide, a tetrazole) was added and reduced to purple formazan only in living cells. Solubilization of the formazan crystals was achieved by adding 100 μl 2-propanol. Cell viability was determined by measuring the absorbance of the reduced formazan, giving a purple color, at 540 nm and 690 nm. The absorbance measured at 690 nm was automatically subtracted from the absorbance at 540 nm, to eliminate the effects of non-specific absorption. The percent cytotoxicity achieved by the compounds was calculated according to standard methods. Cytotoxicity is reported as CC50, the concentration that causes a 50% reduction in cell viability.
The results are depicted in the table(s) below (HELAM).

SMILES | CC50 at 72 h [µg/mL]
O=C(Nc1ccc(/C=C/C(=O)N2CC3C=C(c4ccsc4)CC3C2)cn1)c1cccnc1 (stereo not shown) [compound 4] | 0.97 (≈ 2.19 µM)
Cc1cncc(C(=O)Nc2ccc(/C=C/C(=O)N3CC4C=C(c5nccs5)CC4C3)cn2)c1 (stereo not shown) [compound 6] | > 11.5
C=CCN1C[C@@H]2CN(C(=O)/C=C/c3cnc4c(c3)CN(C)CC(=O)N4)C[C@@H]2C1 [compound 61] | > 9.58
CN1CC(=O)Nc2ncc(/C=C/C(=O)N3C[C@@H]4CN(c5cccnc5)C[C@@H]4C3)cc2C1 [compound 62] | > 10.5
O=C1Nc2ncc(/C=C/C(=O)N3CC4C=C(c5ccccc5)CC4C3)cc2Cn2cncc21 (stereo not shown) [compound 71] | 6.78 (≈ 15.5 µM)
CC(=O)N1CCN2Cc3cc(/C=C/C(=O)N4CC5C=C(c6ccncc6)CC5C4)cnc3NC(=O)C2C1 (stereo not shown) [compound 84] | > 12.5
